The Hill slope is a measure of the steepness of the concentration-response curve. One may read the IC50 as the concentration needed to halve the response being measured.

Assay [1] deals with CCI-induced mechanical hypersensitivity. On the set-up: species or system male Sprague-Dawley rats. The note with it: rat, in vivo.
The target of another assay is α1β1δε nAChR (muscle) (Homo sapiens, UniProt P02708+P11230+Q04844+Q07001). It is filed as cell-based.
In a further assay the target is α9α10 nAChR (Rattus norvegicus, UniProt P43144+Q9JLB5). In kind it is cell-based.
Chain of α9α10 nAChR (P43144 26-479 limits assumed): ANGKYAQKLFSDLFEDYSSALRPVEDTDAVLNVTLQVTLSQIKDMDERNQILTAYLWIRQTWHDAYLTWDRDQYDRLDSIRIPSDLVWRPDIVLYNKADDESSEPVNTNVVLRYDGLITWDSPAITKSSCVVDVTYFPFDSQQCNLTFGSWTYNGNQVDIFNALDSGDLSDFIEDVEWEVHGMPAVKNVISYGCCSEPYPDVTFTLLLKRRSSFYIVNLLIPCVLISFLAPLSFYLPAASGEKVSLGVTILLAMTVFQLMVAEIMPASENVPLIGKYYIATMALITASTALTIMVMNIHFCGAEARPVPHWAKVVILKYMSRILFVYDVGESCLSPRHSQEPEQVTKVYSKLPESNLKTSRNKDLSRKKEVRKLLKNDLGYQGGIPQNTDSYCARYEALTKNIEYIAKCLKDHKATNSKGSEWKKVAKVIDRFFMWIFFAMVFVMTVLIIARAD
Chain of α9α10 nAChR (Q9JLB5 25-447 limits assumed): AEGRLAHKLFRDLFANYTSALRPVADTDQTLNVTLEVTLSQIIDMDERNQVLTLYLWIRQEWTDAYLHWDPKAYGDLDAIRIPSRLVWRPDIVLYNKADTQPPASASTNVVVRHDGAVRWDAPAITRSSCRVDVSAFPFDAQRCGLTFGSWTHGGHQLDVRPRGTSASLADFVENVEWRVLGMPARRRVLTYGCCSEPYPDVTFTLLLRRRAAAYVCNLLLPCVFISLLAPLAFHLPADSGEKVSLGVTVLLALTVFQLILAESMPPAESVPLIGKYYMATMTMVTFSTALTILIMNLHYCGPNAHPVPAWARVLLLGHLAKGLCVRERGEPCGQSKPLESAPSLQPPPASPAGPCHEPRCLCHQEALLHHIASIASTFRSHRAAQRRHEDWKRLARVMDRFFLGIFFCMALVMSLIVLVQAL

Chain of α1β1δε nAChR (muscle) (P02708 21-457 limits assumed): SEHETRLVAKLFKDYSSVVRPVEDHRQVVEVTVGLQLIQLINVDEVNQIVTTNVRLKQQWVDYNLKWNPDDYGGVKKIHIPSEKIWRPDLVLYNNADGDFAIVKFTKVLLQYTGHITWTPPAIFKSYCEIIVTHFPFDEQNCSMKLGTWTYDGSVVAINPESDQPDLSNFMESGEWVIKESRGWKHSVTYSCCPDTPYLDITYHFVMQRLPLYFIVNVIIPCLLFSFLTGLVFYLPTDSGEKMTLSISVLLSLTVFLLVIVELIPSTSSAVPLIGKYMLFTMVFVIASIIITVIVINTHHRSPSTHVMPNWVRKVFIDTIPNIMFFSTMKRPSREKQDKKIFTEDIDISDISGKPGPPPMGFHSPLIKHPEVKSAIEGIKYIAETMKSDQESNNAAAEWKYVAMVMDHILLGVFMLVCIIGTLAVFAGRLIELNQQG
Chain of α1β1δε nAChR (muscle) (P11230 24-501 limits assumed): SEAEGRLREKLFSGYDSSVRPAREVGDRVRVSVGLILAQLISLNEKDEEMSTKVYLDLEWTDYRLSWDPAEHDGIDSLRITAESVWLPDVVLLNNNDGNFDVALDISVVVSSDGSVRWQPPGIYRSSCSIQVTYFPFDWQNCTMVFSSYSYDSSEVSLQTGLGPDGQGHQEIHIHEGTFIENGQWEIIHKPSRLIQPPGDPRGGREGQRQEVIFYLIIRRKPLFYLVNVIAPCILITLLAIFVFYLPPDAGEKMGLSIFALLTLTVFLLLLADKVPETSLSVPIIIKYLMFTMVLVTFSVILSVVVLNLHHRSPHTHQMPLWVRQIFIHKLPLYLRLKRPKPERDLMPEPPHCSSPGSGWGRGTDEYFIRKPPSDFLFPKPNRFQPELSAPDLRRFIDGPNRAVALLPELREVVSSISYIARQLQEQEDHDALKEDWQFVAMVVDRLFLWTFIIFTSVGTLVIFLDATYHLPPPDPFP
Chain of α1β1δε nAChR (muscle) (Q07001 22-517 limits assumed): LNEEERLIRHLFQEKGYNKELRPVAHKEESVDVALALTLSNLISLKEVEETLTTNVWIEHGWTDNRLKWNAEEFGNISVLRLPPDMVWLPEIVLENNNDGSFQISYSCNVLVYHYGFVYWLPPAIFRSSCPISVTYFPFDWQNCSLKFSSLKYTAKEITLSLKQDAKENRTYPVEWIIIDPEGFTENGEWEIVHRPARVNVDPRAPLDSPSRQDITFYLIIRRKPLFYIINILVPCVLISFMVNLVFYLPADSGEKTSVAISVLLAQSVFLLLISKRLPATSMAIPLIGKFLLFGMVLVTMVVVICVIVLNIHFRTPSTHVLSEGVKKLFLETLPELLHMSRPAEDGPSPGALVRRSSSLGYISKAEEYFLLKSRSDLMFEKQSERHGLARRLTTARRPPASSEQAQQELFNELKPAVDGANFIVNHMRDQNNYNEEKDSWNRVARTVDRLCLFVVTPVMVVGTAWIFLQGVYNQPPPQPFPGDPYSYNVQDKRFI
Chain of α1β1δε nAChR (muscle) (Q04844 21-493 limits assumed): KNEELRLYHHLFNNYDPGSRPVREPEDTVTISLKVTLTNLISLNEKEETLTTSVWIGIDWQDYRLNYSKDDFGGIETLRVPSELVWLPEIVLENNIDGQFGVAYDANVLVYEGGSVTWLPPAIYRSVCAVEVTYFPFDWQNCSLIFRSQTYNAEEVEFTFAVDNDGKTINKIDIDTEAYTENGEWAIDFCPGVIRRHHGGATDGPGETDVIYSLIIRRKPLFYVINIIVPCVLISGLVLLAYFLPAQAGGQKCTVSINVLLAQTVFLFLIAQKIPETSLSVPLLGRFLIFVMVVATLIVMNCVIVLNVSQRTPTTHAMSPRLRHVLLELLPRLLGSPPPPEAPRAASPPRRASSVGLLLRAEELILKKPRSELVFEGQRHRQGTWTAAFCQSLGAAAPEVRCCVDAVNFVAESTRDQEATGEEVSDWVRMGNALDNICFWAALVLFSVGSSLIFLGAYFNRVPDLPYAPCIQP

On to α-conotoxin RgIA, for which, in assay [1], the “increase of paw withdrawal thresholds ipsilateral to sciatic nerve ligation” value worked out at 65±17% and the “time to significant increase of PWT ipsilateral to CCI” value was in the range of 3 to 4 h. Also, on α1β1δε nAChR (muscle), the Hill slope is 0.931±0.40 and the IC50 turned out to be 16.1 µM. In addition, at α9α10 nAChR, the Hill slope amounted to 1.13±0.11 and the IC50 was 0.0048 µM.

Source of the values: US9717775B2 (priority 2006, dated 2017).
